Experimental data published in ChEMBL document CHEMBL1138436, “Biological activity and chemistry of taxoids from the Japanese yew, Taxus cuspidata” (J Nat Prod, 2004).
In brackets after ≈: the same amount, converted by molar mass.

Assays:
[1] = tested on: MDA-MB-231; assay: Growth inhibition of human MDA-MB-231 cells; type: functional
[2] = tested on: HCC 2998; assay: Growth inhibition of human HCC2998 cells; type: functional; details: for CC50: read-out: LC50 (the source's name)
[3] = tested on: HT-29; assay: Growth inhibition of human HT-29 cells; type: functional; details: for CC50: read-out: LC50 (the source's name)
[4] = tested on: NCI-H226; assay: Growth inhibition of human NCI-H226 cells; type: functional
[5] = tested on: DMS-273; assay: Growth inhibition of human DMS273 cells; type: functional; details: for CC50: read-out: LC50 (the source's name)
[6] = tested on: OVCAR-8; assay: Growth inhibition of human OVCAR8 cells; type: functional
[7] = tested on: MKN-7; assay: Growth inhibition of human MKN7 cells; type: functional; details: for CC50: read-out: LC50 (the source's name)
[8] = tested on: MKN-45; assay: Growth inhibition of human MKN45 cells; type: functional
[9] = tested on: MKN-74; assay: Growth inhibition of human MKN74 cells; type: functional
[10] = tested on: DU-145; assay: Growth inhibition of human DU145 cells; type: functional
[11] = tested on: DMS-114; assay: Growth inhibition of human DMS114 cells; type: functional; details: for CC50: read-out: LC50 (the source's name)
[12] = tested on: KB; assay: Cytotoxicity against human KB cells; type: functional, cell-based
[13] = read-out: LC50 (the source's name)
[14] = read-out: pLC50 (the source's name) (converted)

C=C1[C@@H](OC(=O)/C=C/c2ccccc2)C[C@H](OC(C)=O)[C@]2(C)[C@@H]1C[C@]1(C(C)(C)O)C[C@H](OC(C)=O)C(C)=C1[C@@H](OC(=O)c1ccccc1)[C@@H]2OC(C)=O [TAXUSPINE A]
GI50 ([1]; read-out: GI50): 16 µM | CC50 [1, 13]: > 100 µM | TGI ([1]; read-out: TGI): > 100 µM | GI50 ([1]; read-out: pGI50 (converted)): 16.2 µM | CC50 [1, 14]: 100 µM | TGI ([1]; read-out: pTGI (converted)): 100 µM | TGI [2]: > 100 µM | GI50 ([2]; read-out: GI50): 26 µM | CC50 [2]: > 100 µM | GI50 ([2]; read-out: pGI50 (converted)): 26.3 µM | GI50 ([3]; read-out: GI50): 43 µM | CC50 [3]: > 100 µM | TGI ([3]; read-out: TGI): > 100 µM | GI50 ([3]; read-out: pGI50 (converted)): 43.7 µM | TGI ([3]; read-out: pTGI (converted)): 100 µM | GI50 ([4]; read-out: GI50): 21 µM | CC50 [4, 13]: > 100 µM | TGI ([4]; read-out: TGI): > 100 µM | GI50 ([4]; read-out: pGI50 (converted)): 83.2 µM | CC50 [4, 14]: 100 µM | TGI ([4]; read-out: pTGI (converted)): 100 µM | GI50 ([5]; read-out: GI50): 4.2 µM | CC50 [5]: > 100 µM | TGI ([5]; read-out: TGI): > 100 µM | GI50 ([5]; read-out: pGI50 (converted)): 4.37 µM | TGI ([5]; read-out: pTGI (converted)): 100 µM | GI50 ([6]; read-out: GI50): 100 µM | CC50 [6, 13]: > 100 µM | TGI ([6]; read-out: TGI): > 100 µM | GI50 ([6]; read-out: pGI50 (converted)): 100 µM | CC50 [6, 14]: 100 µM | TGI ([6]; read-out: pTGI (converted)): 100 µM | TGI [7]: > 100 µM | GI50 ([7]; read-out: GI50): 5.1 µM | CC50 [7]: > 100 µM | GI50 ([7]; read-out: pGI50 (converted)): 5.13 µM | GI50 ([8]; read-out: GI50): > 100 µM | CC50 [8, 13]: > 100 µM | TGI ([8]; read-out: TGI): > 100 µM | GI50 ([8]; read-out: pGI50 (converted)): 100 µM | CC50 [8, 14]: 100 µM | TGI ([8]; read-out: pTGI (converted)): 100 µM | GI50 ([9]; read-out: GI50): > 100 µM | CC50 [9, 13]: > 100 µM | GI50 ([9]; read-out: pGI50 (converted)): 9.55 µM | CC50 [9, 14]: 100 µM | TGI ([9]; read-out: pTGI (converted)): 100 µM | TGI [10]: > 100 µM | GI50 ([10]; read-out: GI50): 100 µM | CC50 [10, 13]: > 100 µM | GI50 ([10]; read-out: pGI50 (converted)): 100 µM | CC50 [10, 14]: 100 µM | GI50 ([11]; read-out: GI50): 7.8 µM | CC50 [11]: > 100 µM | TGI ([11]; read-out: TGI): > 100 µM | GI50 ([11]; read-out: pGI50 (converted)): 7.76 µM

CC(=O)O[C@H]1C[C@H]2OC[C@@]2(OC(C)=O)[C@H]2[C@H](OC(=O)c3ccccc3)[C@]3(O)C[C@H](O)C(C)=C([C@@H](O)[C@H](O)[C@]12C)C3(C)C [TAXUSPINE E]
IC50 [12]: 0.08 µg/mL (≈ 0.136 µM) | GI50 ([1]; read-out: GI50): 18 µM | CC50 [1, 13]: > 100 µM | GI50 ([1]; read-out: pGI50 (converted)): 18.2 µM | CC50 [1, 14]: 100 µM | TGI ([1]; read-out: pTGI (converted)): 100 µM | TGI [2]: > 100 µM | GI50 ([2]; read-out: GI50): 27 µM | CC50 [2]: > 100 µM | GI50 ([2]; read-out: pGI50 (converted)): 27.5 µM | GI50 ([3]; read-out: GI50): 28 µM | CC50 [3]: > 100 µM | TGI ([3]; read-out: TGI): > 100 µM | GI50 ([3]; read-out: pGI50 (converted)): 27.5 µM | TGI ([3]; read-out: pTGI (converted)): 100 µM | GI50 ([4]; read-out: GI50): 32 µM | CC50 [4, 13]: > 100 µM | TGI ([4]; read-out: TGI): > 100 µM | GI50 ([4]; read-out: pGI50 (converted)): 32.4 µM | CC50 [4, 14]: 100 µM | TGI ([4]; read-out: pTGI (converted)): 100 µM | GI50 ([5]; read-out: GI50): 22 µM | CC50 [5]: > 100 µM | TGI ([5]; read-out: TGI): > 100 µM | GI50 ([5]; read-out: pGI50 (converted)): 22.4 µM | TGI ([5]; read-out: pTGI (converted)): 100 µM | GI50 ([6]; read-out: GI50): 37 µM | CC50 [6, 13]: > 100 µM | TGI ([6]; read-out: TGI): 100 µM | GI50 ([6]; read-out: pGI50 (converted)): 37.2 µM | CC50 [6, 14]: 100 µM | TGI ([6]; read-out: pTGI (converted)): 100 µM | TGI [7]: 93 µM | GI50 ([7]; read-out: GI50): 18 µM | CC50 [7]: > 100 µM | GI50 ([7]; read-out: pGI50 (converted)): 18.2 µM | GI50 ([8]; read-out: GI50): 27 µM | CC50 [8, 13]: > 100 µM | TGI ([8]; read-out: TGI): > 100 µM | GI50 ([8]; read-out: pGI50 (converted)): 26.9 µM | CC50 [8, 14]: 100 µM | TGI ([8]; read-out: pTGI (converted)): 100 µM | GI50 ([9]; read-out: GI50): 30 µM | CC50 [9, 13]: > 100 µM | TGI ([9]; read-out: TGI): > 100 µM | GI50 ([9]; read-out: pGI50 (converted)): 30.2 µM | CC50 [9, 14]: 100 µM | TGI ([9]; read-out: pTGI (converted)): 100 µM | TGI [10]: > 100 µM | GI50 ([10]; read-out: GI50): 33 µM | CC50 [10, 13]: > 100 µM | GI50 ([10]; read-out: pGI50 (converted)): 32.4 µM | CC50 [10, 14]: 100 µM | GI50 ([11]; read-out: GI50): 10 µM | CC50 [11]: > 100 µM | TGI ([11]; read-out: TGI): 57 µM | GI50 ([11]; read-out: pGI50 (converted)): 10 µM | TGI ([11]; read-out: pTGI (converted)): 57.5 µM
